Experimental data: patent publication US6989270B1, “Using polyamide nucleic acid oligomers to engender a biological response” (Mayo Foundation for Medical Education and Research, priority 1997, dated 2006)

How the values were obtained:
[1] = system: morphine binding sites; experiment: [3H]morphine binding in rest of brain and small intestine after i.p. AS-NTR1-PNA (Example 8); conditions: for Binding (% change vs control) Morphine: 24 hours after i.p. injection
[2] = Gel shift assay measuring PNA oligomer in tissue; format: in vivo
Description: To confirm the presence and measure the amount of PNA in brain after extracranial administration, a sensitive gel shift assay was developed. This assay involves using a radioactively-labeled oligonucleotide having sequence specificity for a PNA oligomer as a probe to detect that PNA oligomer. Briefly, a sample is prepared and incubated with a probe. If the sample contains a PNA oligomer having sequence specificity for the probe, then the probe can bind that PNA oligomer. This bound form of the probe then can be detected and quantified using gel electrophoresis since a probe bound to a PNA oligomer migrates differently than an unbound probe on a gel.
Brain extracts were prepared from either untreated animals or animals treated intraperitoneally with 10 mg/kg of the AS-NTR1-PNA oligomer. For the treated animals, brain tissue was collected 8 hours post treatment. To prepare brain extracts, flash frozen brain tissue (minus the PAG and hypothalamus) were homogenized in 1 mM Tris (pH 4.0), 0.1 mM EDTA at a concentration of 1.5 ml/g wet weight of tissue. This acidic condition can protonate cytosine bases as well as the N-terminal amino group of the PNA oligomer, which presumably increases the solubility of the PNA oligomer and allows the PNA oligomer to be found in an aqueous phase during the later extraction step. Samples were boiled for five minutes. This boiling step can free the bound PNA oligomer from its target sequence, and inactivate nucleases that may interfere with the integrity of the DNA oligonucleotide probe. Then, the samples were spun two to three times at 35,600×g for 10 minutes each to pellet insoluble material and the supernatants collected. Supernatants were extracted with 10 volumes of CHCl3:MeOH (2:1 v/v) to remove glycolipids that may interfere with gel electrophoresis, and spun briefly at 1,000×g to separate phases. For the standard curves using known amounts of a PNA oligomer, the PNA oligomer was added to the supernatant before the CHCl3:MeOH extraction. The supernatants were collected in a fresh tube, lyophilized, and resuspended in 30 to 40 μl of water.
Once prepared, approximately 400 pg of probe was added to each 30 to 40 μl sample. To prepare the probe, a DNA oligonucleotide (Gibco BRL, Gaithersburg, Md.) complementary to the AS-NTR1-PNA oligomer was end-labeled using T4 Polynucleotide Kinase (Gibco BRL) and [Gamma-^32P]ATP or [Gamma-^33P]ATP (New England Nuclear, Boston, Mass.) according to manufacturer's instructions. […]
After adding the probe, the samples were incubated at room temperature for 20 minutes. […] Signal was detected using a Storm860 Phosphoimager (Molecular Dynamics, Sunnyvale, Calif.) and data were analyzed using ImageQuant Software (Molecular Dynamics, Sunnyvale, Calif.). […]

[3] = system: MU1R mRNA; experiment: Quantitative RT-PCR of MU1R mRNA relative to GAPDH; format: in vivo; conditions: treated intracranially, 5 μg
Description: (§1) Messenger RNA (mRNA) levels for NTR1, MU1R, and GAPDH were measured in control and PNA-treated animals. Briefly, total RNA was isolated from approximately 20 mg of tissue using the S.N.A.P. total RNA Isolation Kit (Invitrogen, Carlsbad, Calif.). Quantitative RT-PCR was performed on treated and control animals using GAPDH as an internal standard and PCR fragments of the human NTR and of a GAPDH deletion mutant as exogenous standards. First strand cDNA was synthesized from approximately 500 ng of total RNA using the cDNA Cycle Kit (Invitrogen, Carlsbad, Calif.). PCR was performed on a GeneAmp PCR System 9600 (Perkin Elmer, Norwalk, Conn.) using end-labeled primer and TAq DNA Polymerase (Gibco-BRL, Gaithersburg, Md.). Products were separated on a 5% acrylamide gel containing 7 M urea, and detected using a Storm860 Phosphoimager (Molecular Dynamics, Sunnyvale, Calif.). Data were analyzed using ImageQuant Software (Molecular Dynamics, Sunnyvale Calif.). To control for any diurnal mRNA level fluctuations that may occur, the PNA injection time was controlled such that the tissue harvest time was identical in each animal group.

[4] = system: NTR1 binding sites; experiment: [125I]NT binding in PAG, rest of brain and small intestine after i.p. AS-NTR1-PNA (Example 8); format: in vivo, rat; conditions: for Binding (% change vs control) NT: 24 hours after i.p. injection
[5] = system: [125I]neurotensin binding sites (NT receptors); experiment: [125I]neurotensin binding assay, small intestine (jejunum and ileum) membranal preparations of treated rats; format: in vivo, rat
Description: Binding assays were performed using procedures similar to those described elsewhere (Kitabgi P. et al., Peptides 5:917-923 (1984) and Ahmad S. et al., Biochim et Biophys Acta 896:224-238 (1987)).
Table II contains the results from an [^125I]neurotensin binding assay using small intestine (jejunum and ileum) membranal preparations from NTR1-PNA treated and untreated rats. The small intestine tissue was harvested from the rats 1 day after receiving a single i.p. injection of NTR1-PNA oligomers as described above. Untreated rats were used to derive control values for the percent control dpm and percent control receptors (fmol/mg). Thus, the values for untreated rats were set to 100 percent.
In addition to determining the influence of […] NTR1-PNA oligomers on anti-nociception and hypothermia, the effects of these oligomers on NT binding sites were determined using the NT receptor binding assay described in Example 1.

[6] = system: NTR1 mRNA; experiment: Quantitative RT-PCR of NTR1 mRNA relative to GAPDH; format: in vivo; conditions: treated intracranially, 5 μg
Description: as §1

[7] = small intestine, 1 day after single i.p. injection (3 mg/kg)

Substance: NTR1-PNA: 12-mer antisense PNA oligomer to rat NTR1 coding region, 5′-CATTGCTCAAAC-3′ (SEQ ID NO: 1) (all peptide nucleic acid (PNA))
- Binding (% change vs control) Morphine ([1]; Rest of Brain): 2 ± 2 % change vs control
- Binding (% change vs control) Morphine ([1]; Small Intestine): −7 ± 8 % change vs control
- number of morphine binding sites compared to controls ([1]; rest of brain or small intestine): no significant difference
- integrity of PNA oligomer recovered from brain (gel mobility shift) ([2]; 8 hours after i.p. 10 mg/kg): unaltered
- presence of PNA oligomer in brain extracts ([2]; 8 hours after i.p. 10 mg/kg, perfused and non-perfused animals): detected in brain extracts prepared from treated animals
- concentration of PNA oligomer within brain ([2]; 8 hours after intraperitoneal 10 mg/kg, corrected for recovery): 2.4±0.3 ng/whole brain
- presence of PNA oligomer in brain, heart, kidney, liver, spleen and blood ([2]; tissues 2 hours after i.p. 10 mg/kg (perfused), blood 5 minutes after i.v. 10 mg/kg): detected in each tissue
- change in MU1R/GAPDH ratio of mRNA [3]: no significant change
- reduction in the number of NTR1 binding sites vs untreated animals ([4]; PAG): 35%
- Binding (% change vs control) NT ([4]; PAG): −35 ± 9 % change vs control
- Binding (% change vs control) NT ([4]; Rest of Brain): −40 ± 1 % change vs control
- Binding (% change vs control) NT ([4]; Small Intestine): −65 ± 5 % change vs control
- reduction in the number of NTR1 binding sites vs untreated animals ([4]; rest of brain): 40%
- reduction in the number of NTR1 binding sites vs untreated animals ([4]; small intestine): 65%
- number of receptors (mean ± SEM in fmol/mg wet wt.) ([5]; Small intestine, 24 hours after single oral 10 mg/kg): Below Detection
- % Control dpm's [5, 7]: 41 % Control
- % Control receptors [5, 7]: 2 % Control
- NT binding sites ([5]; small intestine, 24 hours after oral 10 mg/kg): completely abolished
- fewer [125I]neurotensin binding sites than untreated rats ([5]; small intestine, one day after i.p. treatment): 98%
- change in NTR1/GAPDH ratio of mRNA over time [6]: no significant change
